Experimental data reported in PMC9967275, “Screening the Pathogen Box to Discover and Characterize New Cruzain and TbrCatL Inhibitors” (Pathogens, 2023).
Read-outs that look alike come from different tables or passages of the source.

Key:
[1] = biological target: cruzain (Trypanosoma cruzi, UniProt P25779); experiment: biochemical;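 for Cruzain 0’ Inhibition: at 5 µM compound concentration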;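 for Cruzain 10’ Inhibition: at 5 µM compound concentration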;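 for Cruzain Inhibition 0’: at 5 µM compound concentration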;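 for Cruzain Inhibition 10’: at 5 µM compound concentration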
Method in brief: (§1)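 Recombinant enzymes assayed by Z-Phe-Arg-AMC cleavage at 25 °C, fluorescence 340/440 nm over 5–7 min, with 10 min or no enzyme–compound preincubation.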

[2] = biological target: T1, TbrCatL (Trypanosoma brucei rhodesiense, UniProt Q95PM0); experiment: TbrCatL enzymatic inhibition assay (cleavage of fluorogenic substrate Z-FR-AMC); format: biochemical; conditions: for TbrCatL 0’ Inhibition / TbrCatL 10’ Inhibition: sheet "Screening results";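 for TbrCatL 0’ Inhibition: at 5 µM compound concentration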;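 for TbrCatL 10’ Inhibition: at 5 µM compound concentration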;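 for TbrCatL Inhibition 0’: at 5 µM compound concentration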;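 for TbrCatL Inhibition 10’: at 5 µM compound concentration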
T1 construct: Conor Caffrey (University of California San Diego)
Method in brief: as §1

[3] = 0’ (pre-incubation time), sheet "Screening results"
[4] = 10’ (pre-incubation time), sheet "Screening results"
[5] = 0’ (no pre-incubation), sheet Screening results
[6] = 10’ (pre-incubation), sheet Screening results
[7] = 0’ (pre-incubation time), Pathogen Box screening results
[8] = 10’ (pre-incubation time), Pathogen Box screening results

T1 sequence (Q95PM0 entry or part of it): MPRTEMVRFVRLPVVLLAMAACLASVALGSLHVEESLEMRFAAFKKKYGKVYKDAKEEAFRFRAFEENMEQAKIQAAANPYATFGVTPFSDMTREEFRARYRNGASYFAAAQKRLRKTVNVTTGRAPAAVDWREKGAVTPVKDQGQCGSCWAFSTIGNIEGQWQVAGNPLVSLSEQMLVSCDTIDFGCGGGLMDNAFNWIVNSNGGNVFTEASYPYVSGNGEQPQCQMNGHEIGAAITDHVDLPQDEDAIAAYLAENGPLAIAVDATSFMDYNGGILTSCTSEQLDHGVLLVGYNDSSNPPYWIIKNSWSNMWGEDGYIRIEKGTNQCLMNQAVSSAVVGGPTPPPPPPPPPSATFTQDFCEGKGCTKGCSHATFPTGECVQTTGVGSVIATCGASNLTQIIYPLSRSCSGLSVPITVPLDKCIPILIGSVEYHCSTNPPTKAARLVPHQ
cruzain, sequence (P25779 123-337 limits assumed): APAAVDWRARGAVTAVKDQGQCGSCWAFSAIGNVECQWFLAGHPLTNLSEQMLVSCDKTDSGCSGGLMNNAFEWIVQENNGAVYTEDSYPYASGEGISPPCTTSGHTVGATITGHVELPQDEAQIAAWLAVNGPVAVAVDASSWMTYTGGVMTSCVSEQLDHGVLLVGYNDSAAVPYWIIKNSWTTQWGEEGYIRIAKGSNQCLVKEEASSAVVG

Compound | Cruzain 0’ Inhibition [1, 3] [%] | Cruzain 10’ Inhibition [1, 4] [%] | TbrCatL 0’ Inhibition ([2]; 0’ (pre-incubation time)) [%] | TbrCatL 10’ Inhibition ([2]; 10’ (pre-incubation time)) [%] | Cruzain Inhibition 0’ [1, 5] [%] | Cruzain Inhibition 10’ [1, 6] [%] | TbrCatL Inhibition 0’ [2, 5] [%] | TbrCatL Inhibition 10’ [2, 6] [%] | further results
CCn1ncc2c(NC3CCOCC3)c(CNC(=O)c3ccnn3C)c(C)nc21 [MMV026356] | -0.3 | 1.1 | -6 | -7 | – | – | – | – | –
OCc1ccc(-c2cncc(Nc3cccc(Cl)c3)c2)cc1 [MMV026468] | 0 | 2.8 | 1.7 | 2.7 | – | – | – | – | –
O=C(NCCc1ccccc1)c1cc(-c2cccnc2)cnc1NCC1CC1 [MMV026490] | -1.3 | -5 | 0.1 | -13 | – | – | – | – | –
CC(C)(C)CN1C(=O)C(c2ccccc2)(c2ccccc2)N=C1N [MMV026550] | 0 | 2.8 | -5 | 0.2 | – | – | – | – | –
OCCc1ccc(Nc2nccc(-c3nnc4ccccn34)n2)cc1 [MMV028694] | 7 | 14 | 8 | 13 | – | – | – | – | –
CC(C)(CN)c1nc(-c2ccc(Cl)c(O)c2)c(-c2ccnc(N)n2)[nH]1 [MMV030734] | 5 | -5.6 | 7.5 | -9.5 | – | – | – | – | –
CNC(=O)C1Cc2c([nH]c3cc(Cl)ccc23)C2(CCN(CCc3ccccc3)CC2)N1 (stereo not shown) [MMV031011] | -7.5 | -0.7 | -11 | -8 | – | – | – | – | –
FC(F)(F)c1cccc(-c2nc3c(NCc4ccncc4)nccc3[nH]2)c1 [MMV032967] | -4.6 | -2.4 | -7 | 1.3 | – | – | – | – | –
O=C1COCc2ccc(Br)cc2N1Cc1ccc(C(F)(F)F)cc1 [MMV032995] | -5 | 0.2 | -7 | -7 | – | – | – | – | –
c1ccc(Oc2ccc(-c3cc(N4CCOCC4)n[nH]3)cc2)cc1 [MMV045105] | 1.3 | 29 | 2 | 22 | – | – | – | – | –
COc1cc(C(F)(F)F)nc2ccc(C)c(N)c12 [MMV047015] | 1.1 | 5.5 | 15 | 4 | – | – | – | – | –
N#Cc1ccc(-c2ccc(OCC(N)=O)cc2)cc1 [MMV053220] | – | – | – | – | -9 | -5 | -5.7 | -7 | –
CC(=O)N1CCc2cc3nc(C)cc(C)c3cc21 [MMV054312] | – | – | – | – | 10 | 11 | 9 | 19 | –
Cc1cc(C)nc(-n2nc(C)cc2Nc2ccccc2)n1 [MMV062221] | -21 | -3 | -32 | -72 | – | – | – | – | –
Cc1nn(Cc2ccccc2)c(Cl)c1C(=O)NC1CCCCCC1 [MMV063404] | – | – | – | – | 11 | 7.6 | 7.6 | 2 | –
FC(F)(F)c1nnc2ccc(Cl)nn12 [MMV069458] | – | – | – | – | 2 | -4 | 4 | 0 | –
O=C1N(Cc2cc3ccccc3s2)CC2CN(Cc3ccccc3)CCN12 (stereo not shown) [MMV084603] | – | – | – | – | 7.6 | 6.4 | 18 | 4.6 | –
O=C(Nc1cnc2ccccc2c1)c1cccc(-n2cnnn2)c1 [MMV084864] | – | – | – | – | – | – | – | – | Cruzain Inhibition 0’ [1, 7]: 0%; Cruzain Inhibition 10’ [1, 8]: 11%; TbrCatL Inhibition 0’ [2, 7]: -11%; TbrCatL Inhibition 10’ [2, 8]: 5%
COc1cncc(-c2cncc(N3CCN(c4ccncc4)CC3)n2)c1 [MMV085071] | 3.8 | -19 | -0.1 | -10 | – | – | – | – | –
O=C(C(Cc1c[nH]c2ccccc12)NS(=O)(=O)c1ccc(Cl)cc1)N1CCCCC1 (stereo not shown) [MMV085210] | – | – | – | – | 4.5 | 6.5 | 11 | 8 | –

Compound | Cruzain 0’ Inhibition [1, 3] [%] | Cruzain 10’ Inhibition [1, 4] [%] | TbrCatL 0’ Inhibition ([2]; 0’ (pre-incubation time)) [%] | TbrCatL 10’ Inhibition ([2]; 10’ (pre-incubation time)) [%] | Cruzain Inhibition 0’ [1, 5] [%] | Cruzain Inhibition 10’ [1, 6] [%] | TbrCatL Inhibition 0’ [2, 5] [%] | TbrCatL Inhibition 10’ [2, 6] [%] | further results
CCCNC(=O)N1CCC2(CC1)CC(=O)c1cc(C)ccc1O2 [MMV085230] | 15 | 18 | 8.5 | 13 | – | – | – | – | –
N#Cc1ccc(-c2cnc(N)c(-c3ccc(C(N)=O)cc3)n2)cc1 [MMV085499] | – | – | – | – | – | – | – | – | inhibition at 5 µM ([1]; read-out: Cruzain 0’ Inhibition, 0’ (pre-incubation time), sheet "Screening results"): 0.5%; inhibition at 5 µM ([1]; read-out: Cruzain 10’ Inhibition, 10’ (pre-incubation time), sheet "Screening results"): 25%; inhibition at 5 µM ([1]; read-out: Inhibition at 5 µM (Mean ± SEM %) Cruzain 0′, 5 µM, no pre-incubation, initial screening): 2 ± 3%; inhibition at 5 µM ([1]; read-out: Inhibition at 5 µM (Mean ± SEM %) Cruzain 10′ inc, 5 µM, 10′ pre-incubation, initial screening): 25 ± 4%; inhibition at 100 µM ([1]; read-out: Inhibition at 100 µM (Mean ± SEM %) Cruzain 0′, 100 µM, no pre-incubation, solid samples): 0%; inhibition at 100 µM ([1]; read-out: Inhibition at 100 µM (Mean ± SEM %) Cruzain 10′ inc, 100 µM, 10′ pre-incubation, solid samples): 0%; inhibition at 5 µM ([1]; read-out: Inhibition of cruzain or TbrCatL (either enzyme) in the initial screening, 5 µM, either cruzain or TbrCatL, with or without pre-incubation): ≥ 40%; inhibition at 5 µM ([2]; read-out: Inhibition at 5 µM (Mean ± SEM %) TbrCatL 0′): 12 ± 8%; inhibition at 5 µM ([2]; read-out: Inhibition at 5 µM (Mean ± SEM %) TbrCatL 10′ inc): 46 ± 5%; inhibition at 100 µM ([2]; read-out: Inhibition at 100 µM (Mean ± SEM %) TbrCatL 0′): 26 ± 18%; inhibition at 100 µM ([2]; read-out: Inhibition at 100 µM (Mean ± SEM %) TbrCatL 10′ inc): 0%; inhibition at 5 µM ([2]; read-out: TbrCatL 0’ Inhibition): 9%; inhibition at 5 µM ([2]; read-out: TbrCatL 10’ Inhibition): 46%
CCOC(=O)NC(=O)c1ccsc1NC(=O)c1nc2ccccc2s1 [MMV090930] | – | – | – | – | -18 | 3 | 1.3 | 0.3 | –
O=C(Nc1nnc(-c2ccc(Cl)cc2)o1)c1cccc(C(F)(F)F)c1 [MMV102872] | – | – | – | – | -1.6 | -10 | 0.5 | -16 | –
CCC(C)NC(=O)c1ccc(NC(=O)C2(c3ccccc3)CCCC2)cc1 (stereo not shown) [MMV146306] | – | – | – | – | – | – | – | – | Cruzain Inhibition 0’ [1, 7]: 0.6%; Cruzain Inhibition 10’ [1, 8]: 1.8%; TbrCatL Inhibition 0’ [2, 7]: -3.2%; TbrCatL Inhibition 10’ [2, 8]: -6.5%
CCOC(=O)c1c(NC(=O)c2c(F)c(F)c(F)c(F)c2F)sc(C(N)=O)c1C [MMV153413] | 0.7 | 23 | 1.1 | 39 | – | – | – | – | –
Cc1cc(Cl)ccc1NC(=O)CCc1ccc(S(=O)(=O)NCC(C)C)cc1 [MMV161996] | – | – | – | – | – | – | – | – | Cruzain Inhibition 0’ [1, 7]: -2.2%; Cruzain Inhibition 10’ [1, 8]: 9%; TbrCatL Inhibition 0’ [2, 7]: 15%; TbrCatL Inhibition 10’ [2, 8]: 1.5%
CNC(=O)C1Cc2ccccc2N1C(=O)Cc1ccc(F)cc1 (stereo not shown) [MMV188296] | – | – | – | – | 10 | 10 | 14 | 13 | –
COc1ccc(C2(C(=O)Nc3ccc(Br)cc3)CCCC2)cc1 [MMV200748] | 3.8 | 4 | -2.7 | -3 | – | – | – | – | –
COc1ccc(OC(C)C(=O)Nc2ccc(Cl)cc2C)cc1 (stereo not shown) [MMV202458] | – | – | – | – | -14 | -11 | -16 | -19 | –
CCC(=O)Nc1ccccc1C(=O)Nc1ccccn1 [MMV202553] | – | – | – | – | 15 | 14 | 15 | 7 | –
COc1cccc(NC(=O)c2c(NC(=O)c3cccnc3)sc3c2CCC3)c1 [MMV228911] | – | – | – | – | – | – | – | – | Cruzain Inhibition 0’ [1, 7]: -1.4%; Cruzain Inhibition 10’ [1, 8]: 4.7%; TbrCatL Inhibition 0’ [2, 7]: -8.5%; TbrCatL Inhibition 10’ [2, 8]: 4.5%
COc1cccc(-n2nnnc2S(C)(=O)=O)c1 [MMV272144] | – | – | – | – | – | – | – | – | Cruzain Inhibition 0’ [1, 7]: -1.3%; Cruzain Inhibition 10’ [1, 8]: 11%; TbrCatL Inhibition 0’ [2, 7]: -11%; TbrCatL Inhibition 10’ [2, 8]: 9%
COc1cccc(-c2cc3c(Nc4cccnc4)nccc3[nH]2)c1 [MMV392832] | – | – | – | – | – | – | – | – | Cruzain Inhibition 0’ [1, 7]: 8.5%; Cruzain Inhibition 10’ [1, 8]: -3.6%; TbrCatL Inhibition 0’ [2, 7]: 6%; TbrCatL Inhibition 10’ [2, 8]: -6.4%
CN1CCN(c2nccc3[nH]c(-c4cccc(F)c4)cc23)CC1 [MMV393144] | -15 | -11 | -8.5 | -8 | – | – | – | – | –
Cc1cc(=O)[nH]c(-n2nc(C)cc2C)n1 [MMV393995] | – | – | – | – | – | – | – | – | Cruzain Inhibition 0’ [1, 7]: -12%; Cruzain Inhibition 10’ [1, 8]: -0.3%; TbrCatL Inhibition 0’ [2, 7]: -13%; TbrCatL Inhibition 10’ [2, 8]: -7%
CCc1nc2ccc(C(=O)NCc3ccc4c(c3)OCO4)cn2c1N(C)Cc1cccs1 [MMV407539] | -4 | -3 | -10 | -3.2 | – | – | – | – | –
CCOc1ccccc1NC(C)C(=O)Nc1cc(C(F)(F)F)ccc1N1CCOCC1 (stereo not shown) [MMV407834] | -3.4 | 4 | -3 | -7 | – | – | – | – | –
COC(=O)c1c(NC(=O)c2c(F)c(F)c(F)c(F)c2F)sc2c1CCCCC2 [MMV461553] | – | – | – | – | -34 | -24 | -16 | 9 | –
CC(C)(C)c1cnc(NC(=O)c2ccccc2O)s1 [MMV495543] | – | – | – | – | – | – | – | – | Cruzain Inhibition 0’ [1, 7]: -17%; Cruzain Inhibition 10’ [1, 8]: 3.4%; TbrCatL Inhibition 0’ [2, 7]: -9%; TbrCatL Inhibition 10’ [2, 8]: 6.5%
